Entries after “also recorded” stand apart in the source; their conditions may differ. Like-named read-outs stand apart in the source and are kept apart here.
Columns and labels:
human MIF [1] = target: T1, human MIF (Homo sapiens, UniProt P14174); experiment: MIF dopachrome tautomerase enzyme inhibition assay; type: biochemical; conditions: for IC50: MIF 0.7 μg/ml treated 5 minutes, dopachrome methyl ester (1) substrate; for MIF enzyme inhibition activity (in words): dopachrome tautomerase assay; for inhibition at 200 µM: read-out: % inhibition at 200 μM; for effect on MIF enzymatic activity at doses equimolar to MIF monomer: higher MIF concentrations (approximately 0.1 mg/ml and above)
T1 construct: made in house; host or cells: E. coli
T1 sequence (P14174 2-115 limits assumed): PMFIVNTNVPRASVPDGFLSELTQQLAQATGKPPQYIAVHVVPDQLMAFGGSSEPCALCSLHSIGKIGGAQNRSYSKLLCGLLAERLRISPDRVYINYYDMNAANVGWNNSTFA

L6 rat myoblasts = experiment: Fructose-2,6-bisphosphate (F2,6BP) induction assay; type: cell-based; conditions: for induction of F2,6BP production (in words): MIF conjugated with compound, 10 ng/ml; for F2,6BP production: murine MIF 10 ng/ml, untreated or pretreated (conjugated) with compound, control=100%
human MIF [2] = target: T1, human MIF; experiment: MIF tautomerase inhibition in the presence of fetal bovine serum; type: biochemical
recombinant mouse MIF = recombinant mouse MIF (Mus musculus, UniProt P34884); experiment: Tautomerase enzyme inactivation of murine MIF before the bioassay
human MIF [3] = target: T1, human MIF; experiment: Covalent enzyme modification (SDS-PAGE, MALDI MS, dialysis/gel filtration)
NIH/3T3 cells = experiment: MIF-induced arachidonic acid release; type: cell-based; conditions: cells labeled with 1 μM [14C]-arachidonic acid
Protocol: NIH/3T3 cells were labeled with 1 μM [^14C]-arachidonic acid. After overnight culture, the cells were washed extensively with PBS and then the appropriate samples of MIF or MIF-NAPQI (4) conjugate were added in duplicate. The release of arachidonic acid into the culture medium was then measured.
The effect of MIF-NAPQI (4) conjugate on arachidonic acid release was tested by adding equivalent amounts of either MIF or MIF-NAPQI (4) conjugate to NIH3/3T3 cell cultures that had been pre-equilibrated with radioactive arachidonate, followed by the measurement of arachidonic acid release by scintillation counting. Briefly, NIH/3T3 fibroblasts were labeled with 1 μM [^14C]-arachidonic acid. After overnight culture, the cells were washed extensively with PBS, and the appropriate samples of MIF or MIF-NAPQI (4) conjugate were added in duplicate. The release of arachidonic acid into medium was then measured as described previously (Mitchell et al., J. Biol. Chem., 274:18100-18106, 1999).

anti-MIF antibodies = experiment: Cross-reactivity with anti-MIF antibodies (ELISA); type: binding; conditions: for recognition by anti-MIF antibodies (in words): MIF incubated with NAPQI (4) versus unmodified MIF
Protocol: FIG. 7 illustrates the loss of immunological crossreactivity with anti-MIF antibodies following incubation of MIF with NAPQI (4).
(iii) Cross-reactivity with anti-MIF antibodies. […] Without being bound by mechanism, and in view of the lack of bioactivity of the MIF-NAPQI (4) conjugate in the above arachidonic acid release and F2,6BP induction assays, it is likely that NAPQI (4) conjugation induces distortion of the MIF peptide conformation. This distortion also renders the MIF-NAPQI (a) (4) conjugate non-crossreactive with anti-MIF Mab.
The presence of such structural changes was further explored by characterizing the binding of additional MIF-specific antibodies (Picower Institute clones XIV. 14.3, III.D.9 and XIV. 15.5, which differ in their epitope recognition and activity to inhibit biologically active MIF), using a standard ELISA technique. In a standardized sandwich ELISA specific for MIF Meinhardt et al., Endocrinology, 137:5090-5095, 1996), an equivalent amount of MIF-NAPQI (4) conjugate (as indicated by protein concentration) was recognized 7-fold less than purified recombinant MIF that had not been exposed to NAPQI (4) (FIG. 7). Again, without being bound by mechanism, this loss of cross-reactivity of MIF-NAPQI (4) was most likely due to remote structural changes in MIF induced by covalent attachment of NAPQI (4). These structural changes might, in turn, account for the lack of bioactivities of MIF-NAPQI (4) and MIF-N-acetyl-3-hydroxy-p-benzoquinone imine (6) conjugates in the F2,6BP induction assay, and for the lack of bioactivity of MIF-NAPQI (4) conjugate in the arachidonic acid release assay.

## CC(=O)N=C1C(C)=CC(=O)C=C1C [Compound 9]
Human MIF [1]
  IC50: 200 µM

## COc1cc(NC(C)=O)ccc1O [Compound 10]
Human MIF [1]
  MIF enzyme inhibition activity (in words): little, if any
Human MIF [1]; 200 μM compound, MIF 0.7 μg/ml, 5 minutes
  inhibition at 200 µM: 0%

## CC(=O)Nc1ccc(O)c(O)c1 [Compound 5]
Human MIF [1]
  IC50: 500 µM
  MIF enzyme inhibition activity (in words): little, if any

## O=C(O)/C=C/C1=CC(=O)C(=O)C=C1 [Compound 16]
Human MIF [1]
  IC50: 0.3 µM
  MIF enzyme inhibition activity (in words): sub-micromolar
  effect on MIF enzymatic activity at doses equimolar to MIF monomer: virtually eliminated

## O=C(O)c1ccc(O)c(O)c1 [Compound 13]
Human MIF [1]
  MIF enzyme inhibition activity (in words): little, if any
  inhibition at 200 µM: 24%

## CC(=O)Nc1ccc(O)cc1 [Compound 3, acetaminophen, reference compound]
Human MIF [1]
  IC50: 10000 µM

## COC1=CC(=NC(C)=O)C=CC1=O [Compound 11]
Human MIF [1]
  IC50: 25 µM

## CCN1C(=O)C=CC1=O [Compound 18, N-ethylmaleimide, reference compound]
Human MIF [1]
  MIF enzyme inhibition activity (in words): No inhibitory activity
Human MIF [1]; read-out: % inhibition at 500 μM
  inhibition at 500 µM: 0%

## iodoacetamide [Compound 17, reference compound]
Human MIF [1]; 500 μM compound, MIF 0.7 μg/ml, 5 minutes
  % inhibition at 500 μM: 0% inhibition at 500 μM
Human MIF [1]
  MIF enzyme inhibition activity (in words): No inhibitory activity

## CC(=O)N=C1C=CC(=O)C(O)=C1 [Compound 6, N-acetyl-3-hydroxy-p-benzoquinone imine]
L6 rat myoblasts
  induction of F2,6BP production (in words): fail to induce
  F2,6BP production: 105 % of control
Human MIF [1]
  IC50: 0.7 µM
  MIF enzyme inhibition activity (in words): potent inhibitors; also recorded: sub-micromolar
  effect on MIF enzymatic activity at doses equimolar to MIF monomer: virtually eliminated
Human MIF [1]; MIF 2.8 μM (0.1 mg/ml, 8.4 μM monomer), compound at 7 μM (0.83 equivalents based on monomer)
  enzyme activity lost: 93%
Human MIF [1]; MIF 0.1 mg/ml, 1.7 equivalents/monomer
  enzyme activity lost (in words): All
Human MIF [1]; ratio of IC50 values versus compound 5
  more potent than dihydroquinone-like analog 5: more than 715 fold

## CC(=O)N=C1C=C(C)C(=O)C(C)=C1 [Compound 8]
Human MIF [1]
  IC50: 120 µM

## CC(=O)N=C1C=CC(=O)C(C)=C1 [Compound 7]
Human MIF [1]
  IC50: 35 µM

## CC(=O)N=C1C=CC(=O)C=C1 [Compound 4, N-Acetyl-p-benzoquinone imine]
L6 rat myoblasts
  induction of F2,6BP production (in words): fail to induce
  F2,6BP production: 94 % of control
Human MIF [1]
  inhibition of enzymatic activity: 69%
  MIF enzyme inhibition activity (in words): potent inhibitor
Human MIF [1]; read-out: enzyme inhibition
  inhibition at 49.5 µM: 37%
  inhibition at 190 µM: 94%
  inhibition at 500 µM: 100%
Human MIF [2]; MIF 0.72 μg/ml, compound 0.2 mM
  fetal bovine serum concentration at which loss in inhibitory activity became detectable: 25%
Human MIF [2]; MIF 0.72 μg/ml, compound 0.2 mM, 20 minutes
  inhibition of MIF in the presence of serum proteins (in words): occurred even in the presence of serum proteins
Human MIF [2]; read-out: residual inhibitory activity
  inhibition at 200 µM: 31%
Recombinant mouse MIF; mouse MIF pretreated with 167 μM compound
  inhibition of enzyme activity / enzyme inactivation: 96%
Recombinant mouse MIF; read-out: inhibition of enzyme activity / enzyme inactivation, mouse MIF pretreated with 167 μM compound
  inhibition at 167 µM: 98%
Human MIF [3]; MIF inactivated with compound, data not shown
  restoration of enzymatic activity by dialyzing or gel filtering inactivated MIF: not possible to restore enzymatic activity
Human MIF [3]; SDS-PAGE and MALDI mass spectra of treated MIF
  chemical modification of MIF (in words): stable, covalent conjugates

## O=C(O)/C=C/c1ccc(O)c(O)c1 [Compound 15]
Human MIF [1]
  MIF enzyme inhibition activity (in words): little, if any

## O=C(O)C1=CC(=O)C(=O)C=C1 [Compound 14]
Human MIF [1]
  IC50: 4 µM

B1: MIF-NAPQI (4) conjugate: stable covalent conjugate formed when MIF is treated with NAPQI (4) (conjugate, UniProt P14174 2-115, looked up)
Macrophage migration …: T1 sequence (P14174 2-115 limits assumed)
modifications: covalent NAPQI adduct
L6 rat myoblasts
  induction of F2,6BP production (in words): failed to induce
NIH/3T3 cells
  induction of arachidonic acid release (in words): did not induce; also recorded: does not induce
NIH/3T3 cells; equivalent amounts of MIF or conjugate
  arachidonic acid released into culture supernatant relative to cultures treated with MIF: less than 1/10
anti-MIF antibodies
  recognition by anti-MIF antibodies (in words): fail to recognize
anti-MIF antibodies; listed as MIF-NAPQI conjugate
  recognition by anti-MIF antibodies (in words): significantly less
anti-MIF antibodies; equivalent amount by protein concentration, standardized sandwich ELISA specific for MIF
  recognition in sandwich ELISA, less than unmodified recombinant MIF: 7 fold

From patent US6492428B1, “Compounds having MIF antagonist activity” (The Picower Institute for Medical Research, priority 2000, dated 2002)
